Consider seven compounds from article PMC3691235, “Discovery of a Novel Dual Fungal CYP51/Human 5-Lipoxygenase Inhibitor: Implications for Anti-Fungal Therapy” (PLoS ONE, 2013).

Assay type in all cases: biochemical
One experiment deals with T1, Ovine COX-1 (Ovis aries, UniProt P05979).
T1 construct: purchased Cayman chemical 60100
T1 sequence (P05979 25-600): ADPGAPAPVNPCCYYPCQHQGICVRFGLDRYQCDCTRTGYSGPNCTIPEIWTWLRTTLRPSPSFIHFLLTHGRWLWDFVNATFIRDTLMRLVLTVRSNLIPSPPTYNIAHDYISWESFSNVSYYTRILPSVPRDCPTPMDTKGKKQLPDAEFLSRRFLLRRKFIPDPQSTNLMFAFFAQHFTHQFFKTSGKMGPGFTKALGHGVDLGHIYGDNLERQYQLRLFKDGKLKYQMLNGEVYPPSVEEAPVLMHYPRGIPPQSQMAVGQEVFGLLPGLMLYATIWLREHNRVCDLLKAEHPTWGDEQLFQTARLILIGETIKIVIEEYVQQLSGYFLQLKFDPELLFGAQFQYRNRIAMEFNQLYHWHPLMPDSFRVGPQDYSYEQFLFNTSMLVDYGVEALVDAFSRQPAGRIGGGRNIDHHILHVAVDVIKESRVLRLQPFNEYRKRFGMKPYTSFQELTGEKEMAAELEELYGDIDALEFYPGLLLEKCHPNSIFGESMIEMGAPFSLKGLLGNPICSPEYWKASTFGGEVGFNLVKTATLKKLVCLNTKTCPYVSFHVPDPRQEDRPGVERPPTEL
Put plainly: Cyclooxygenase assay (oxygen electrode), COX-1. The method, then: Ovine COX-1 (Cat. No. 60100) and human COX-2 (Cat. No. 60122) were purchased from Cayman chemical. Approximately 2 µg of either COX-1 or COX-2 were added to buffer containing 100 µM AA, 0.1 M Tris-HCl buffer (pH 8.0), 5 mM EDTA, 2 mM phenol and 1 µM hematin at 37°C. Data was collected using a Hansatech DW1 oxygen electrode chamber, as described before. Inhibitor or vehicle were mixed with the respective COX in buffer within the electrode cell, the reaction was initiated by the addition of AA, followed by monitoring of rate of oxygen consumption. Ibuprofen, aspirin and indomethacin, and the carrier solvent, DMSO, were used as positive and negative controls, respectively.

Experiment [1] addresses T2, Human reticulocyte 15-lipoxygenase-1 (15-LOX-1) (Homo sapiens, UniProt P16050).
T2 construct: His6 (N); made in house
T2 sequence (P16050 1-662): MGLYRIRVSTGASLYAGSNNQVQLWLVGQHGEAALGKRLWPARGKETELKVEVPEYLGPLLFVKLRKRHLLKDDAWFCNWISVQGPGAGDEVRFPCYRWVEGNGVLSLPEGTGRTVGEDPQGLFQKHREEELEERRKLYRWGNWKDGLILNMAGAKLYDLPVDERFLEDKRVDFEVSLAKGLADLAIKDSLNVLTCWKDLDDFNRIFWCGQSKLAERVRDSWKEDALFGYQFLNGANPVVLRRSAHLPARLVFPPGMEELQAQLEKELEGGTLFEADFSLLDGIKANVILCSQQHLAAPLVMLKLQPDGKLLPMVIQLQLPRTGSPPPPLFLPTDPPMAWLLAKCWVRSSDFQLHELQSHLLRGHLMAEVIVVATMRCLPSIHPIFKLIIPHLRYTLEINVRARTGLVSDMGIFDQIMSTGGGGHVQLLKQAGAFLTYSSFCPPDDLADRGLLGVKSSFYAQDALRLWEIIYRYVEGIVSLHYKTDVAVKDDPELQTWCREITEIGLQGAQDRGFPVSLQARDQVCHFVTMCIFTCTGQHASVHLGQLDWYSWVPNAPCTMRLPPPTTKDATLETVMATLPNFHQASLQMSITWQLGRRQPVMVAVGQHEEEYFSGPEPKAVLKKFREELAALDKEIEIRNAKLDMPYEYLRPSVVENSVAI
Put plainly: Lipoxygenase UV-based inhibitor assay, 15-LOX-1. The note with it: 10 µM LA, pH 7.5. The method, then:
(§1) Human leukocyte 5-lipoxygenase was expressed as a non-tagged protein and used as a crude ammonium sulfate protein fraction, as published previously.
(§2) Inhibitor potencies were evaluated through use of the standard UV-based inhibitor assay. The initial rates were determined by following the formation of the conjugated diene product at 234 nm (ε = 25,000 M^−1 cm^−1) with a Perkin-Elmer Lambda 40 UV/Vis spectrophotometer at one substrate concentration and varying inhibitor concentrations. All reactions were 2 mL in volume and constantly stirred using a magnetic stir bar at room temperature (23°C), with the enzyme specific buffer conditions outlined in Table 1. The substrate used for the various isozymes was arachidonic acid (AA) for 5-LOX, 12-LOX, and 15-LOX-2 and linoleic acid (LA) for 15-LOX-1, where concentrations were quantitatively determined by allowing the enzymatic reaction to go to completion. IC50 values were obtained by determining the initial rate at various inhibitor concentrations and plotting them against inhibitor concentration, followed by a hyperbolic saturation curve fit. The data used for the saturation curves were performed in duplicate or triplicate, depending on the quality of the data. […] Inhibitors were stored at −20°C in DMSO. […] The solvent isotope effect of the inhibitor IC50 was investigated utilizing the same conditions and methods as stated above. The pH of the buffered D2O was determined as reported previously.

The target in experiment [2] is T3, human prostate epithelial 15-lipoxygenase-2 (15-LOX-2) (Homo sapiens, UniProt O15296).
T3 construct: His6 (N); made in house
T3 sequence (O15296 1-676): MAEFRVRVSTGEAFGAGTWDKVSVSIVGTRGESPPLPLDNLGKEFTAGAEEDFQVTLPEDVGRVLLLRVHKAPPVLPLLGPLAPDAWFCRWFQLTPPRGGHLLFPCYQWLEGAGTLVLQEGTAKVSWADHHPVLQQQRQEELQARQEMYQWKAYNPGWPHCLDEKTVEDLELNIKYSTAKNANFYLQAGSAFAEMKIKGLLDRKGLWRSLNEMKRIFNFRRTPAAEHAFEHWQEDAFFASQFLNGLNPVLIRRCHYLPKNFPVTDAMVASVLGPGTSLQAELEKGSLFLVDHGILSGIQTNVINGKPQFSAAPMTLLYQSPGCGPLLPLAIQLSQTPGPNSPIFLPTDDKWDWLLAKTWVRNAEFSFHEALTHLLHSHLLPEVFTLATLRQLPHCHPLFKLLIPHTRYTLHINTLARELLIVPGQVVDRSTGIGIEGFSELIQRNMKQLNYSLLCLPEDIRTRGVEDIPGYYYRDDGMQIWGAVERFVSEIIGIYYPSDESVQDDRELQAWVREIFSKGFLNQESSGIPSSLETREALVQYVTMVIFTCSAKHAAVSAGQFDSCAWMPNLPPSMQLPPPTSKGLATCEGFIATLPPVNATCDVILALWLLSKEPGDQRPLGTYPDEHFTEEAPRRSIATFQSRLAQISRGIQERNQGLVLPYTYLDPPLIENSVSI
The experiment can be described thus: Lipoxygenase UV-based inhibitor assay, 15-LOX-2. Conditions: 30 µM AA, pH 7.5. On the procedure: as §1, §2

The mark [3] stands for this setting: 100 µM AA, pH 8.0, 37°C, oxygen consumption, read-out: COX-1 IC50.

Where two headings read alike, the source gives them in different places.

In the case of `Cc1cc(C2CCCCC2)n(O)c(=O)c1` [ciclopirox, reference compound], the half-inhibitory concentration (IC50) (as a rule, the point on the concentration scale where inhibition reaches its midpoint) at Ovine COX-1 (setting [3]) is above 50 µM; in experiment [1] it was above 100 µM.
Consider `CC[C@](O)(c1nnc(NCc2ccc3c(-c4ccc(F)cc4)cc(=O)oc3c2)o1)C(F)(F)F` [setileuton, reference compound], for which the IC50 in experiment [2] and in experiment [1] was above 150 µM throughout.
On to `CC(=O)N1CCN(c2ccc(NCc3ccc(-c4cccc(Cl)c4)o3)cc2)CC1` [Compound 13], for which the results for the IC50 (in experiment [2]; at Ovine COX-1 (setting [3]); in experiment [1]) were above 50 µM, above 150 µM and above 50 µM, respectively.
On to `N#Cc1ccc(-c2ccc(CNc3ccc(N4CCCCC4)cc3)o2)cc1` [Compound 14], for which the IC50 in experiment [2] is 10 µM; at Ovine COX-1 (setting [3]), above 150 µM; in experiment [1] it was above 25 µM.
`CC(=O)N1CCN(c2ccc(OCC3COC(Cn4ccnc4)(c4ccc(Cl)cc4Cl)O3)cc2)CC1` (stereo not shown) [ketoconazole, reference compound]: the IC50 in experiment [2] is above 150 µM; against Ovine COX-1, above 50 µM; in experiment [1] it was above 50 µM.
Take `CC(C)(C)OC(=O)N1CCN(c2ccc(NCc3ccc(-c4ccc(C#N)cc4)o3)cc2)CC1` [Compound 1]: the IC50 in experiment [2] is above 150 µM; on Ovine COX-1 (setting [3]), above 50 µM; in experiment [1], above 150 µM.
Consider `CC(=O)N1CCN(c2ccc(NCC3COC(Cn4ccnc4)(c4ccc(Cl)cc4Cl)O3)cc2)CC1` (stereo not shown) [ketaminazole (16), ketaminazole], for which the IC50 (in experiment [2]; at Ovine COX-1 (setting [3]); in experiment [1]) was above 150 µM each time.
